This is an account of results in patent publication US11992558B2, “Controlled release formulation comprising flavoxate” (priority 2018, dated 2024).

Where two headings read alike, the source gives them in different places.

The conditions of data set [1]: cited from earlier work.
Data set [2] can be described thus: Solubility of flavoxate in various solvents at 20° C. The class given is physicochemical. As to the method:
(§1) Solubility of flavoxate hydrochloride was determined in various aqueous buffers, water, ethanol, acetone and ethyl ether at 20° C. and at ambient temperature (20 to 25° C.).

A short description of data set [3]: pH-dependent aqueous solubility at ambient temperature. The following applies: 20 °C. The class given is physicochemical. Here is the method: as §1
Data set [4] in a line: Flow properties of drug powder. The class given is physicochemical. Here is the method:
Tapped density • 2. Bulk density • 3. Compressibility Index and Hausner ratio • 4. Angle of repose Solubility: Flowability measures how uniformly the powder flows from the hopper into the tablet die and is an index of how well the tablet die will be filled to a constant volume. […] Similarly, the angle between the freestanding surface of a powder heap and horizontal plane is the angle of repose. […] flowability was less and could be improved with addition of lubricants during tablet-making. Results of tests to determine the Angle of repose (35°), Carr's index (33.3%), bulk density (0.236 gm/ml) and tapped density ([…]) indicate that the drug powder had poor flow properties.

The nature of data set [5]: Drug-excipient compatibility (Total RS). In kind it is physicochemical. As to the method: Experiments were conducted to ascertain compatibility of the drug with commonly used excipients.

As to `Cc1c(-c2ccccc2)oc2c(C(=O)O)cccc2c1=O` [MFCA, 3-methylflavone-8-carboxylic acid], the “half-life t½” value in data set [1] (MFCA) was 3.5 h.
Turning to `Cc1c(-c2ccccc2)oc2c(C(=O)OCCN3CCCCC3)cccc2c1=O.Cl` [flavoxate, 2-piperidinoethyl-3-methylflavone 8-carboxylate hydrochloride], the Solubility % w/v entry is on record as “Insoluble” in data set [2] (Acetone); 2.50 % w/v in data set [2] (Chloroform); 0.20 % w/v in data set [2] (Ethanol); “Insoluble” in data set [2] (Ethyl Ether); 0.90 % w/v in data set [2] (Methanol). The solubility came out at 7500 µg/mL in data set [2] (Water, read-out: Solubility % w/v); 7640 µg/mL in data set [3] (aqueous buffer, 0.05N Phosphate Buffer, pH 2.5, 20 to 25° C.); 13700 µg/mL in data set [3] (aqueous buffer, 0.05N Phosphate Buffer, pH 4.5, 20 to 25° C.); 15400 µg/mL in data set [3] (aqueous buffer, 0.05N Phosphate Buffer, pH 6.0, 20 to 25° C.); 6170 µg/mL in data set [3] (aqueous buffer, 0.05N Phosphate Buffer, pH 6.8, 20 to 25° C.); 1040 µg/mL in data set [3] (aqueous buffer, 0.05N Phosphate Buffer, pH 7.2, 20 to 25° C.). Further, the solubility in data set [3] (aqueous buffer, 0.05N Phosphate Buffer, pH 7.5, 20 to 25° C.) is 580 µg/mL; in data set [3] (simulated gastric fluid, 0.1N HCl, pH 1.2, 20 to 25° C.), 570 µg/mL; in data set [3] (Water, pH 5.7, 20 to 25° C.), 11300 µg/mL. In data set [4], this compound showed an Angle of repose of 35 °. Besides, in data set [4], the “Carr's index” value came out at 33.3%. Also, in data set [4], the bulk density worked out at 0.236 gm/ml. Moreover, the tapped density in data set [4] turned out to be 0.355 g/mL. For the same compound, the “Total R.S. (%) 30 D/40° C./75% RH*” value in data set [5] (30 days at 40° C. and 75% relative humidity) came out at 0.04%. For the same compound, in data set [5] (initial), the “Total R.S. (%) Initial” value is listed as 0.02%. Also, the “duration of therapeutic activity” value in data set [1] (in vivo) is 5 to 6 h. The “free flavoxate in urine” value in data set [1] (in vivo) is “No free flavoxate was found”. The “time of peak level of MFCA” value was “around two hours” in data set [1] (oral 400 mg dose) and 30 to 60 min in data set [1] (oral administration of 200 mg dose). In data set [1] (oral, within 12 hours), the “dose excreted as MFCA within 12 hours” value is listed as “About 50%”. Also, the “dose excreted as MFCA” value in data set [1] (urine, 24 hours, intravenous) was 47%.
